Results taken from patent US11952584B2, “Functional peptides having antimicrobial activity against phytopathogenic microorganisms” (TOYOTA JIDOSHA KABUSHIKI KAISHA, priority 2019, dated 2024).
“And” between values parts separate entries of the source, which are not always exact repeats. Identical values can stand only once. Like-named read-outs stand apart in the source and are kept apart here.

Columns and labels:
[1] = test system: plant pathogenic filamentous fungi; format: cell-based; details: summary of Table 3
Fusarium oxysporum = format: cell-based
[2] = test system: Colletotrichum orbiculare; format: cell-based; details: 25° C., 1 day or 2 days
[3] = test system: Colletotrichum destructivum; format: cell-based; details: 25° C., 1 day or 2 days
Pyricularia oryzae = format: cell-based; details: 25° C., 1 day or 2 days
Botrytis cinerea = format: cell-based; details: 25° C., 1 day or 2 days
[4] = test system: Colletotrichum destructivum; assay: Colletotrichum destructivum leaf inoculation test (Chinese cabbage leaf); format: in vivo; details: 25° C., 4 days, lesions by visual inspection
Description: In the present example, a suspension comprising Colletotrichum destructivum and a peptide to be tested was dropped on a plant leaf, and lesions were then observed by visual inspection to evaluate the antimicrobial activity of the tested peptide. First, the pores of Colletotrichum destructivum were suspended in water to result in a spore concentration of 5×10^5 spores/ml, so as to prepare a water suspension of spores. Subsequently, peptides to be tested (TsORF18 (full length), TsORF18-40 a.a., and TsORF18-2) were each added to the water suspension of spores, so that the final concentration of the peptides to be tested became 0 μM, 1 μM, 10 μM or 100 μM. Thereafter, 10 μl each of the water suspension of spores containing the peptide to be tested was dropped on the front side and the back side of the leaf of Chinese cabbage (variety name: “Kigokoro 85”). In this condition, incubation was carried out at 25° C. for 4 days. Thereafter, the front and back sides of the leaf were observed by visual inspection.

| Substance | germination inhibitory activity against plant pathogenic filamentous fungi (in words) [1] | Plate antimicrobial activity test Fusarium oxysporum (level) (Fusarium oxysporum) | Plate antimicrobial activity test Collectotrichum orbiculare (level) ([2]; peptide 1 μM) | Plate antimicrobial activity test Collectotrichum orbiculare (level) ([2]; peptide 10 μM) | Plate antimicrobial activity test Collectotrichum orbiculare (level) ([2]; peptide 100 μM) | Plate antimicrobial activity test Colletotrichum destructivum (level) ([3]; peptide 1 μM) | Plate antimicrobial activity test Colletotrichum destructivum (level) ([3]; peptide 10 μM) | Plate antimicrobial activity test Colletotrichum destructivum (level) ([3]; peptide 100 μM) | Plate antimicrobial activity test Pyricularia oryzae (level) (Pyricularia oryzae; peptide 1 μM) | Plate antimicrobial activity test Pyricularia oryzae (level) (Pyricularia oryzae; peptide 10 μM) | Plate antimicrobial activity test Pyricularia oryzae (level) (Pyricularia oryzae; peptide 100 μM) | Plate antimicrobial activity test Botrytis cinerea (level) (Botrytis cinerea; peptide 1 μM) | Plate antimicrobial activity test Botrytis cinerea (level) (Botrytis cinerea; peptide 10 μM) | Plate antimicrobial activity test Botrytis cinerea (level) (Botrytis cinerea; peptide 100 μM) | Leaf inoculation test Chinese cabbage/Colletotrichum destructivum ([4]; peptide 1 μM) | Leaf inoculation test Chinese cabbage/Colletotrichum destructivum ([4]; peptide 10 μM) | Leaf inoculation test Chinese cabbage/Colletotrichum destructivum ([4]; peptide 100 μM) |
| --- | --- | --- | --- | --- | --- | --- | --- | --- | --- | --- | --- | --- | --- | --- | --- | --- | --- |
| ERTRKFWR (listed as Solanum lycopersicum) [TsORF18-2-8aa-9] | extremely excellent germination inhibitory activity | 3 and 0 | 0 | 0 | 1 | 0 | 0 | 0 | 0 | 0 | 1 | 0 | 0 | 3 |  |  |  |
| FWRIWKGK (listed as Solanum lycopersicum) [TsORF18-2-8aa-14] | extremely excellent germination inhibitory activity | 3 and 0 | 0 | 0 | 3 | 0 | 0 | 3 | 0 | 0 | 0 | 0 | 0 | 3 | Δ | ∘ | ∘ |
| KFWRI (listed as Solanum lycopersicum) [TsORF18-2-5aa-13] | extremely excellent germination inhibitory activity | 3 and 0 | 0 | 0 | 3 | 0 | 0 | 3 | 0 | 0 | 1 | 0 | 0 | 3 |  | ∘ | ∘ |
| WRIWK (listed as Solanum lycopersicum) [TsORF18-2-5aa-15] | extremely excellent germination inhibitory activity | 2 and 0 | 0 | 0 | 2 | 0 | 0 | 3 | 0 | 0 | 0 | 0 | 0 | 3 |  |  |  |
| WRIWKGKT (listed as Solanum lycopersicum) [TsORF18-2-8aa-15] | extremely excellent germination inhibitory activity | 3 and 0 | 0 | 0 | 3 | 0 | 0 | 3 | 0 | 0 | 0 | 0 | 0 | 3 |  |  |  |
| YYGFPAFS (listed as Solanum lycopersicum) [TsORF18-2-8aa-1] |  | 0 | 0 | 0 | 0 | 0 | 0 | 0 | 0 | 0 | 0 | 0 | 0 | 0 |  |  |  |
